In patent US8147827B2, “Tumor treatment” (Genentech, Inc., priority 2004, dated 2012):
“And” between values parts separate entries of the source, which are not always exact repeats. Equal values may be shown once. “Also recorded” adds a separate entry of the source. Where a name gives a salt, the structure may show the parent alone.

Experiments:
mouse colon = assay: Oligonucleotide array analysis (Affymetrix Mu74Av2) of normal colon/intestine of tumor-bearing mice treated with CPT-11 or saline; type: in vivo
Colo205 tumors = assay: Real-time PCR (TaqMan) of RNA from Colo205 xenograft tumors; type: in vivo, human
Description: Real-Time PCR (TaqMan®)'The source of RNA used for RT-PCR analysis was the same as that used for the preparation of probes for oligonucleotide array analysis. Quantitative Reverse Transcriptase-PCR (RT-PCR) was performed using TaqMan® assay reagents from Perkin-Elmer, Applied Biosystems, 50 μl RT-PCR reactions consisted of 5 μl 10× TaqMan Buffer A, 300 μM of each dNTP, 5 mM MgCl2, 10 unites of RNase inhibitor, 12.5 units of MuLV Reverse Transcriptase, 1.25 units of AmpliTaq Gold DNA Polymerase, 200 nM probe, 500 nM primers and 100 ng RNA. Reaction conditions consisted of reverse transcription at 48° C. for 10 minutes, denaturation at 95° C. for 10 minutes, and 40 thermal cycles of 95° C. for 25 seconds, and 65° C. for 1 min. Reaction products were analyzed on 4-agarose gels (Invitrogen). Fold-induction for each gene of interest was determined using the ΔΔCt method and the result is presented relative to both GAPDH and actin in each figure. The following specific probes and primer sets were used for MFGE8 (Acc#U58516): forward primer: […] (SEQ ID NO: 1), reverse primer: […] (SEQ ID NO: 2), and probe: […] (SEQ ID NO: 3); GPC1 (Acc#X54232): forward primer: […] (SEQ ID NO: 4), reverse primer: […] (SEQ ID NO: 5), and probe: […] (SEQ ID NO:6); AQP3 (Acc# N74607): forward primer: […] (SEQ ID NO: 7), reverse primer: […] (SEQ ID NO: 8), and probe, […] […]

normal colon tissue = assay: Real-time PCR with mouse-specific primers on normal colon of CPT-11 treated mice; type: in vivo; settings: normal colon of CPT-11 treated vs control mice; data not shown
Description: Real-Time PCR (TaqMan®)'The source of RNA used for RT-PCR analysis was the same as that used for the preparation of probes for oligonucleotide array analysis. Quantitative Reverse Transcriptase-PCR (RT-PCR) was performed using TaqMan® assay reagents from Perkin-Elmer, Applied Biosystems, 50 μl RT-PCR reactions consisted of 5 μl 10× TaqMan Buffer A, 300 μM of each dNTP, 5 mM MgCl2, 10 unites of RNase inhibitor, 12.5 units of MuLV Reverse Transcriptase, 1.25 units of AmpliTaq Gold DNA Polymerase, 200 nM probe, 500 nM primers and 100 ng RNA. Reaction conditions consisted of reverse transcription at 48° C. for 10 minutes, denaturation at 95° C. for 10 minutes, and 40 thermal cycles of 95° C. for 25 seconds, and 65° C. for 1 min. Reaction products were analyzed on 4-agarose gels (Invitrogen). Fold-induction for each gene of interest was determined using the ΔΔCt method and the result is presented relative to both GAPDH and actin in each figure. The following specific probes and primer sets were used for MFGE8 (Acc#U58516): forward primer: […] NO: 1), reverse primer: […] NO: 2), and probe: […] NO: 3); GPC1 (Acc#X54232): forward primer: […] NO: 4), reverse primer: […] NO: 5), and probe: […] […] Real-time PCR with primers specific for corresponding mouse transcripts was performed and with the exceptions of SPRR3 and Aquaporin-3, all of the mouse homologs were readily detected in RNA from mouse colon. […]

[1] = tested on: Colo205 human tumor xenografts; assay: In vivo efficacy study, Colo205 xenografts in nude mice; settings: CPT-11 alone, 80 mg/kg IP day 0, 4 & 8; regrowth at rapid rate after last administration
LY6D/E48 transcript = assay: LY6D/E48 mRNA induction in cultured cell lines by CPT-11 (real-time PCR); type: cell-based, human; settings: for LY6D/E48 transcript: monohydrochloride, trihydrate
From the text: (§1) Cell lines-Colo205, HCT116, HT29 (ATCC Nos. CCL222, CCL221, CCL247, HTB38, respectively) are human colorectal adenocarcinoma cell lines. 293 is a human immortalized embryonic kidney cell line (ATCC CRL573). PC-3 is a human prostate adenocarcinoma cell line (ATCC CRL1435) and HT1080 is a human fibrosarcoma cell line (ATCC CCL-121). PC-3 stable cell lines were generated by transfection (Effectene, Qiagen) with a CMV-driven vector encoding either an NH2-terminal gD epitope-tagged form of LY6D/E48 or an empty vector and selected in 400 μg/ml G418 (Geneticin, Life Technologies, Inc.). Growth conditions were according to American Type Culture Collection (ATCC, Manassas, Va.) guidelines. For all cell lines, CPT11 treatments were done in 10 cm dishes for the indicated timepoints. Cells were harvested and RNA was prepared using RNeasy kit (Qiagen, Hilden, Germany). TaqMan® real-time quantitative PCR analysis was performed as described below.
(§2) Real-Time PCR (TaqMan®)'The source of RNA used for RT-PCR analysis was the same as that used for the preparation of probes for oligonucleotide array analysis. Quantitative Reverse Transcriptase-PCR (RT-PCR) was performed using TaqMan® assay reagents from Perkin-Elmer, Applied Biosystems, 50 μl RT-PCR reactions consisted of 5 μl 10× TaqMan Buffer A, 300 μM of each dNTP, 5 mM MgCl2, 10 unites of RNase inhibitor, 12.5 units of MuLV Reverse Transcriptase, 1.25 units of AmpliTaq Gold DNA Polymerase, 200 nM probe, 500 nM primers and 100 ng RNA. Reaction conditions consisted of reverse transcription at 48° C. for 10 minutes, denaturation at 95° C. for 10 minutes, and 40 thermal cycles of 95° C. for 25 seconds, and 65° C. for 1 min. Reaction products were analyzed on 4-agarose gels (Invitrogen). Fold-induction for each gene of interest was determined using the ΔΔCt method and the result is presented relative to both GAPDH and actin in each figure. The following specific probes and primer sets were used for MFGE8 (Acc#U58516): forward primer: […] (SEQ ID NO: 1), reverse primer: […] (SEQ ID NO: 2), and probe: […] (SEQ ID NO: 3); GPC1 (Acc#X54232): forward primer: […] (SEQ ID NO: 4), reverse primer: […] (SEQ ID NO: 5), and probe: […] (SEQ ID NO:6); AQP3 (Acc# N74607): forward primer: […] (SEQ ID NO: 7), reverse primer: […] (SEQ ID NO: 8), and probe, […] (SEQ ID NO: 9); CDH17 (Acc#83228): forward primer: […] (SEQ ID NO: 10), reverse primer: […] (SEQ ID NO: 11), and probe: […] (SEQ ID NO: 12); Ly6D/E48 (Acc#Y12642): forward primer: […] (SEQ ID NO: 13); reverse primer: […] (SEQ ID NO: 14); and probe: […] (SEQ ID NO: 15); and Ly6E/SCA-2 (Acc# U66711): forward primer: […] (SEQ ID NO: 16); reverse primer: […] (SEQ ID NO: 17); and probe: […] (SEQ ID NO: 18).

[2] = tested on: DLD-1 colorectal tumor xenografts; assay: Growth, treatment and resection of DLD-1 tumor xenografts in nude mice; type: in vivo, human; settings: DLD-1 xenografts; CPT-11-treated; at time of resection; monohydrochloride, trihydrate
From the text: (§3) Growth and treatment of human tumor xenografts—Female nude mice (Charles River Laboratories, Hollister Calif.) were maintained in accordance with the guide for the Care and Use of Laboratory Animals, Colo205 human colorectal cancer cells were harvested, resuspended in HBSS, and injected s.c. into flanks (5×10^6 cells/flank) of 6-8 week old mice. […] Twenty-four hours following the final dose of CPT-11 or saline, tumors were resected from the animals. […]. Half of each tumor was frozen immediately in liquid nitrogen for subsequent extraction of RNA and the other half was fixed in 10% neutral buffer formalin overnight and then transferred 24 hours later into 70% ethanol for sectioning, microscopic analysis and analysis by in situ hybridization. Tumor xenografts of the DLD-1 colorectal cell line were treated and prepared in essentially the same manner. The masses of the DLD-1 colorectal tumor xenografts at time of resection were 0.24, 0.10 and 0.21 for saline controls and 0.21, 0.1 and 0.12 for CPT-11-treated tumors.

E48/Ly-6D = E48/Ly-6D surface expression on Colo205 cells after CPT-11 (FACS, immunofluorescence); type: cell-based, human
Description: For flow cytometry, cells were grown to 90% confluence and removed from plates using 2 mM EDTA in PBS. Cells were washed and resuspended in FACS buffer (PBS with 1% BSA) and incubated for 60 min with anti-LY6D/[…] monoclonal antibody 15A5 or 17H7 or anti-gd antibody (Genentech, Inc.) followed by 60 min with anti-mouse secondary antibody conjugated to PE. Analysis was performed on FACS scan.

Colo205 and DLD-1 cells = Colo205 and DLD-1 cells treated in vitro with CPT-11, expression of genes of Table I; type: cell-based, human; settings: data not shown
From the text: as §1, with “LY6D/[…]” for “LY6D/E48”

DLD-1 tumors = assay: Real-time PCR (TaqMan) of RNA from DLD-1 xenograft tumors, parallel to Colo205; type: in vivo, human
Description: as §2

[3] = tested on: Colo205 human colorectal cancer cells; assay: Growth, treatment and resection of Colo205 tumor xenografts in nude mice (mass, H&E); type: in vivo
From the text: as §3

SMILES: CCc1c2c(nc3ccc(OC(=O)N4CCC(N5CCCCC5)CC4)cc13)-c1cc3c(c(=O)n1C2)COC(=O)[C@]3(O)CC [CPT-11, (S)-[1,4′-bipiperidine]-1′-carboxylic acid, 4,11-diethyl-3,4,12,14-tetrahydro-4-hydroxy-3,14-dioxo-1H-pyrano[3′,4′:6,7]indolizino(1,2-b)quinolin-9-yl ester, monohydrochloride, trihydrate]
- tumor-induced transcripts in normal mouse intestine (mouse colon; apart from Metallothionein (MT1G)): none of the transcripts that were induced in the tumors by CPT-11 were induced in the normal mouse intestine
- cryptidin genes (mouse colon; normal colon, three animals treated with CPT-11): activated in two of the three animals treated with CPT-11
- gene activation in colon, Mu74Av2 array (mouse colon; unrelated to most genes induced in the xenografts): activation of a small number of genes in the colon
- Galectin-7 mRNA (Colo205 tumors; Colo205 tumors): present and induced
- transcripts MFGE8, GPC1, AQP3, CDH17, LY6D, LY6E, identified and confirmed by real-time PCR (Colo205 tumors; three CPT-11 treated Colo205 tumors vs saline controls): significant upregulation in all three CPT-11 treated tumors relative to controls
- expression of mouse homologs of tumor-induced genes (normal colon tissue): no difference in expression of these genes was detected
- tumor growth [1]: transiently reduced the rate of tumor growth
- LY6D/E48 mRNA (LY6D/E48 transcript; colorectal cancer cell line DLD-1): overexpressed LY6D/E48 MRNA in response to CPT-11
- LY6D/E48 mRNA (LY6D/E48 transcript; colorectal cancer cell line HCT116): overexpressed LY6D/E48 MRNA in response to CPT-11
- LY6D/E48 mRNA (LY6D/E48 transcript; colorectal cancer cell line HT29): overexpressed LY6D/E48 MRNA in response to CPT-11
- LY6D/E48 transcript level (LY6D/E48 transcript; cultured Colo205 cells, 10 μM CPT-11, 24 and 48 hours): elevated within 24 hours post-treatment with a further enhancement by 48 hours
- LY6D/E48 mRNA (LY6D/E48 transcript; fibrosarcoma cell line HT1080): overexpressed LY6D/E48 MRNA in response to CPT-11
- LY6D/E48 transcript (LY6D/E48 transcript; human embryonic kidney cell line 293, 10 μM CPT-11): could not be detected in the absence or presence of CPT-11; also recorded: not detected
- LY6D/E48 transcript (LY6D/E48 transcript; human prostate cancer PC3 cell line, 10 μM CPT-11): could not be detected in the absence or presence of CPT-11; also recorded: not detected
- mass of resected tumor (individual tumors) [2]: 0.21 and 0.1 and 0.12
- anti-LY6D/E48 signal intensity by fluorescence activated cell sorting (E48/Ly-6D; Colo205 cells, increasing concentrations of CPT-11 in vitro, 2 days): increased in a dose dependent manner
- signal intensity and percentage of reactive cells by immunofluorescent microscopy (E48/Ly-6D; intact Colo205 cells, increasing CPT-11): increased with drug dosage
- expression of genes listed in Table I (Colo205 and DLD-1 cells): upregulation of some of the genes listed in Table I was observed
- Activation of Keratin23 and E48 (DLD-1 tumors; Colo205 and DLD-1 tumors): occurred in both tumor types
- Neuromedin U, Annexin VIII, Transglutaminase, Aquaporin-3 and Maspin (DLD-1 tumors; Colo205 and DLD-1 tumors): all induced by SPT-11 and expressed at comparable levels in the Colo205 and DLD-1 tumors
- Galectin-7 mRNA (DLD-1 tumors; DLD-1 tumors): undetectable in both treated or control DLD-1 tumors
- Periplekin and Antileukoproteinase induction (DLD-1 tumors; DLD-1 tumors compared with Colo205 tumors): induced by SPT-11 to a degree less than that observed for the Colo205 tumors
- genes induced by CPT-11, Colo205 and DLD-1 tumors in parallel (DLD-1 tumors; real-time PCR, FIG. 2): most of the genes were induced by CPT-11 treatment of both tumor types
- average tumor mass, drug treated vs control group ([3]; 24 hours after third injection): did not differ significantly
- average mass of the tumors ([3]; 24 hours after third injection, control and drug treated groups): approximately 300 mg
- mass of resected tumor (individual tumors) ([3]; CPT-11 80 mg/kg IP three times at 4 day intervals, 24 hours after final dose, monohydrochloride, trihydrate, 80 mg/kg): 0.23 grams and 0.18 grams and 0.50 grams
